This note sets out measurements from article PMC7114135, “Interaction between the Antimalarial Drug Dispiro-Tetraoxanes and Human Serum Albumin: A Combined Study with Spectroscopic Methods and Computational Studies” (ACS Omega, 2020).

Molecules are shown by their SMILES.

This assay concerns the target T1, human serum albumin (HSA) (Homo sapiens, UniProt P02768).
T1 construct: gene ALB; fatty-acid-free HSA (Sigma-Aldrich A3782)
Briefly: intrinsic fluorescence quenching (modified Stern-Volmer, binding constant Kb, […] K), supported by UV-vis, time-resolved fluorescence and CD. Particulars: read-out: Kb (L mol^-1) (converted).

T1 sequence (P02768 25-609): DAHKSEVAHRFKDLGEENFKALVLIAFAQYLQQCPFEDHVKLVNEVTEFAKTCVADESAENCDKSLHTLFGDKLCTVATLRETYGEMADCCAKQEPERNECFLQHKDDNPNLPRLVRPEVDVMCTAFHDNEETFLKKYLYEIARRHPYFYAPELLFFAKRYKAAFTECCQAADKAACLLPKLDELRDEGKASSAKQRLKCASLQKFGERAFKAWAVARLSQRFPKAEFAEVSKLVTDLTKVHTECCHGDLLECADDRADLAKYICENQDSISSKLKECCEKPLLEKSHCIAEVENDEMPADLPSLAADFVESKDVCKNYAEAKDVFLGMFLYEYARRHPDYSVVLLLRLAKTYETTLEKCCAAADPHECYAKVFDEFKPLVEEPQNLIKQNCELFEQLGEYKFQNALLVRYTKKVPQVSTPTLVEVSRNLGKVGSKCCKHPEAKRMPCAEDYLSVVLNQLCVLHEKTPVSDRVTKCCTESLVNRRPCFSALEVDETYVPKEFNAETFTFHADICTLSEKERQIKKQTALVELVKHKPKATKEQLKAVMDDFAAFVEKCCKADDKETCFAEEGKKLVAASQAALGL

Take `CCS(=O)(=O)CN1CCC2(CC1)OOC1(CCCCC1)OO2` [TO2]: the Kd was 93.2 µM.

On to `O=S(=O)(CCCCl)CN1CCC2(CC1)OOC1(CCCC1)OO2` [TO1], for which the Kd is 16 µM.
